Laboratory results: patent publication US20240317744A1, “Bicyclic Ureas As Kinase Inhibitors” (Incyte Corporation, priority 2023, published 2024)

Legend:
[1] = target: T1, pseudo-kinase domain (JH2, amino-acids 536-812) of human Wild Type JAK2 (Homo sapiens, UniProt O60674, F794H/W659A/W777A); experiment: JAK2 LanthaScreen JH2-WT Binding Assay; details: JAK2 JH2-WT 0.145 nM, 50 nM tracer, 1 hour at 25° C.; read-out: JH2 BIND WT
T1 construct: pseudo-kinase domain (JH2, amino-acids 536-812 with 3 surface mutations W659A, W777A, F794H); His (C); purchased BPS Bioscience 79463; host or cells: baculovirus expression system
T1 sequence (O60674 536-812 W659A/W777A/F794H): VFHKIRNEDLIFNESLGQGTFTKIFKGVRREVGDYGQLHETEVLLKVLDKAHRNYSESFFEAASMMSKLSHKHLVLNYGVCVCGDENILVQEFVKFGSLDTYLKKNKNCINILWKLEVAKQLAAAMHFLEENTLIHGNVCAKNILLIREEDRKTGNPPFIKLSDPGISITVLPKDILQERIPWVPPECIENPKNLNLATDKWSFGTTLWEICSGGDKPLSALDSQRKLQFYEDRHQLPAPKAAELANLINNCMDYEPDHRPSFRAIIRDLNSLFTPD
Description: Example B. JAK2 LanthaScreen JH2-WT Binding Assay
JAK2 JH2-WT binding assay utilizes pseudo-kinase domain (JH2, amino-acids 536-812 with 3 surface mutations W659A, W777A, F794H) of human Wild Type JAK2 expressed as C-terminal His-Avi-tagged, biotinylated protein in a baculovirus expression system (BPS Bioscience, Catalog #79463). The assay was conducted in black 384-well polystyrene plates in a final reaction volume of 20 μL. JAK2 JH2-WT (0.145 nM) was incubated with compounds (100 nL serially diluted in DMSO) in the presence of 50 nM Fluorescent JAK2-JH2 Tracer (MedChem Express Catalog #HY-102055) and 0.25 nM Streptavidin-Tb cryptate (Cisbio Part #610SATLB) in assay buffer (50 mM Tris, pH=7.5, 10 mM MgCl2, 0.01% Brij-35, 0.1% BSA, 1 mM EGTA, 5% Glycerol and 5 mM DTT). Non-specific binding was accessed in the presence of 2 mM ATP. After incubation for 1 hour at 25° C., LanthaScreen signals were read on a PHERAstar FS plate reader (BMG LABTECH). Data was analyzed with IDBS XLfit and GraphPad Prism 5.0 software using a four parameter dose response curve to determine IC50 for each compound.

[2] = target: catalytic domain (JH1, amino acids 808-1132) of human JAK2 (Homo sapiens, UniProt O60674); experiment: JAK2 HTRF Enzyme Activity Assay; assay type: biochemical; details: ATP 30 µM, 60 minutes at 25° C.; read-out: V617F ENZ 30 UM
Sequence of catalytic domain (JH1, amino acids 808-1132) of human JAK2 (O60674 808-1132 limits assumed): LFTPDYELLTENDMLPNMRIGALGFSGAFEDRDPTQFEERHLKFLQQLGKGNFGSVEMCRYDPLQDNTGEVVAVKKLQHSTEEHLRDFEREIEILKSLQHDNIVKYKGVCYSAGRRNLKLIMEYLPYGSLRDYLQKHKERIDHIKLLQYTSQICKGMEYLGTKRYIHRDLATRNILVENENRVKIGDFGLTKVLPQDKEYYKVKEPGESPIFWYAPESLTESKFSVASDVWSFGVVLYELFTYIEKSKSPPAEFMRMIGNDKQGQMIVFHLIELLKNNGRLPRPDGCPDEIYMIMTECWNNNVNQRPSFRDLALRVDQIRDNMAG

[3] = target: T2, pseudo-kinase domain (JH2, amino-acids 536-812) of human V617F mutant JAK2 (Homo sapiens, UniProt O60674, F794H/V617F/W659A/W777A); experiment: JAK2 LanthaScreen JH2-V617F Binding Assay; details: JAK2 JH2-V617F 0.26 nM, 50 nM tracer, 1 hour at 25° C.; read-out: JH2 BIND V617F
T2 construct: pseudo-kinase domain (JH2, amino-acids 536-812 with 3 surface mutations W659A, W777A, F794H); His (C); purchased BPS Bioscience 79498; host or cells: baculovirus expression system
T2 sequence (O60674 536-812 V617F/W659A/W777A/F794H): as the sequence (O60674 536-812 W659A/W777A/F794H) above, with V82F counted along it
Summary of the method: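 This is a TR-FRET tracer-displacement format with a 1 h, 25 °C incubation. It combined 0.26 nM baculovirus-expressed biotinylated JH2-V617F, 50 nM fluorescent JAK2-JH2 tracer and 0.25 nM streptavidin-Tb cryptate in 50 mM Tris pH 7.5, 10 mM MgCl2, 5 mM DTT. Background came from 2 mM ATP, and IC50 values were from four-parameter dose-response fits.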

[4] = target: T3, catalytic domain (JH1, amino acids 826-1132) of human JAK2 (Homo sapiens, UniProt O60674); experiment: JAK2 LanthaScreen JH1 Binding Assay; details: JAK2 JH1 1.5 nM, 50 nM tracer, 2 hours at 25° C.; read-out: JH1 BIND
T3 construct: catalytic domain (JH1, amino acids 826-1132) of human JAK2; FLAG (N); biotin (biotinylated); purchased Carna Biosciences 08-445-20N; host or cells: baculovirus expression system
T3 sequence (O60674 826-1132): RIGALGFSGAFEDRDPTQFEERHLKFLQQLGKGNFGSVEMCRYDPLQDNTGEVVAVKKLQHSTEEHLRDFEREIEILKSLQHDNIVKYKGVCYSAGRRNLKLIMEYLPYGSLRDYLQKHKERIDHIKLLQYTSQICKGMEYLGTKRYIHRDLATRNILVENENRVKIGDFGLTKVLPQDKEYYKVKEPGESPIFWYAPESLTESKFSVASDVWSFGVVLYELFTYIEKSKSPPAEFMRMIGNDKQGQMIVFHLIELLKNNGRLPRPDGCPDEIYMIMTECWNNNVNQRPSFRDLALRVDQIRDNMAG
Description: Example A. JAK2 LanthaScreen JH1 Binding Assay
JAK2 JH1 binding assay utilizes catalytic domain (JH1, amino acids 826-1132) of human JAK2 expressed as N-terminal FLAG-tagged, biotinylated protein in a baculovirus expression system (Carna Biosciences, Product #08-445-20N). The assay was conducted in black 384-well polystyrene plates in a final reaction volume of 20 μL. JAK2 JH1 (1.5 nM) was incubated with compounds (100 nL serially diluted in DMSO) in the presence of 50 nM fluorescent JAK2-JH1 tracer and 0.5 nM Streptavidin-Tb cryptate (Cisbio Part #610SATLB) in assay buffer (50 mM Tris, pH=7.5, 10 mM MgCl2, 0.01% Brij-35, 0.1% BSA, 1 mM EGTA, 5% Glycerol and 5 mM DTT). Non-specific binding was accessed in the presence of 2 mM ATP. After incubation for 2 hours at 25° C., LanthaScreen signals were read on a PHERAstar FS plate reader (BMG LABTECH). Data was analyzed with IDBS XLfit and GraphPad Prism 5.0 software using a four parameter dose response curve to determine IC50 for each compound.

| SMILES | IC50 [1] | IC50 [2] | IC50 [3] | IC50 [4] |
| --- | --- | --- | --- | --- |
| [2H]C([2H])([2H])n1c(=O)n([C@H]2CC[C@@](C)(NC(=O)C3CC3)CC2)c2cc(Nc3ccc4nn(C)c(-c5cnn(C(F)(F)F)c5)c4n3)ncc21 (single isomer, unassigned) [Example 91, N-((1s,4s)-1-Methyl-4-(3-(methyl-d3)-6-((2-methyl-3-(1-(trifluoromethyl)-1H-pyrazol-4-yl)-2H-pyrazolo[4,3-b]pyridin-5-yl)amino)-2-oxo-2,3-dihydro-1H-imidazo[4,5-c]pyridin-1-yl)cyclohexyl)cyclopropanecarboxamide] | ≤ 10 nM | 10 to 100 nM | ≤ 10 nM | > 1000 nM |
| [2H]C([2H])([2H])n1c(=O)n([C@]2([2H])CC[C@@H](NC(=O)OC)C2)c2cc(Nc3cc(-c4cnccc4C(F)(F)F)c4nc(C)c(-c5cnn(C(F)F)c5)n4n3)ncc21 (single isomer, unassigned) [Example 97] | ≤ 10 nM | 500 to 1000 nM | ≤ 10 nM | > 1000 nM |
| CCOC(=O)c1cnc(Nc2cc(Nc3cc4c(cn3)n(C)c(=O)n4[C@@H]3CC[C@@H](NC(=O)OC)C3)cc(-c3cccc(C#N)c3)c2)o1 [Example 1, Ethyl 2-((3′-cyano-5-((1-((1R,3R)-3-((methoxycarbonyl)amino)cyclopentyl)-3-methyl-2-oxo-2,3-dihydro-1H-imidazo[4,5-c]pyridin-6-yl)amino)-[1,1′-biphenyl]-3-yl)amino)oxazole-5-carboxylate] | 10 to 100 nM | > 1000 nM | 100 to 500 nM | > 1000 nM |
| COC(=O)N[C@@H]1CC[C@@H](n2c(=O)n(C)c3cnc(Nc4cc(NC(=O)C5(F)CCOCC5)cc(-c5cccc(C#N)c5)c4)cc32)C1 [Example 2, Methyl ((1R,3R)-3-(6-((3′-cyano-5-(4-fluorotetrahydro-2H-pyran-4-carboxamido)-[1,1′-biphenyl]-3-yl)amino)-3-methyl-2-oxo-2,3-dihydro-1H-imidazo[4,5-c]pyridin-1-yl)cyclopentyl)carbamate] | ≤ 10 nM | > 1000 nM | ≤ 10 nM | > 1000 nM |
| [2H]C([2H])([2H])n1c(=O)n([C@@H]2CC[C@@H](NC(=O)OC)C2)c2cc(Nc3cc(C(=O)N4CC5(CCN5C)C4)c4cccc(C(F)(F)F)c4n3)ncc21 [Example 3, Methyl ((1R,3R)-3-(3-(methyl-d3)-6-((4-(1-methyl-1,6-diazaspiro[3.3]heptane-6-carbonyl)-8-(trifluoromethyl)quinolin-2-yl)amino)-2-oxo-2,3-dihydro-1H-imidazo[4,5-c]pyridin-1-yl)cyclopentyl)carbamate] | ≤ 10 nM | 500 to 1000 nM | ≤ 10 nM | > 1000 nM |
| COC(=O)N[C@@H]1CC[C@@H](n2c(=O)n(C)c3cnc(Nc4cccc(-c5ccc(CO)c(C)c5)n4)cc32)C1 [Example 4, Methyl ((1R,3R)-3-(6-((6-(4-(hydroxymethyl)-3-methylphenyl)pyridin-2-yl)amino)-3-methyl-2-oxo-2,3-dihydro-1H-imidazo[4,5-c]pyridin-1-yl)cyclopentyl)carbamate] | ≤ 10 nM | > 1000 nM | ≤ 10 nM | > 1000 nM |
| COC(=O)N[C@@H]1CC[C@@H](n2c(=O)n(C)c3cnc(Nc4cccc(-c5ccc(OC)nc5)n4)cc32)C1 [Example 5, Methyl ((1R,3R)-3-(6-((6′-methoxy-[2,3′-bipyridin]-6-yl)amino)-3-methyl-2-oxo-2,3-dihydro-1H-imidazo[4,5-c]pyridin-1-yl)cyclopentyl)carbamate] | ≤ 10 nM | > 1000 nM | ≤ 10 nM | > 1000 nM |
| [2H]C([2H])([2H])n1c(=O)n([C@@H]2CC[C@@H](NC(=O)OC)C2)c2cc(Nc3cc(C(=O)N4CCC(C#N)CC4)c4cccc(C(F)(F)F)c4n3)ncc21 [Example 6, Methyl ((1R,3R)-3-(6-((4-(4-cyanopiperidine-1-carbonyl)-8-(trifluoromethyl)quinolin-2-yl)amino)-3-(methyl-d3)-2-oxo-2,3-dihydro-1H-imidazo[4,5-c]pyridin-1-yl)cyclopentyl)carbamate] | ≤ 10 nM | 100 to 500 nM | ≤ 10 nM | 100 to 500 nM |
